Measurements as given in article PMC8893300, “A Dynamic Mass Redistribution Assay for the Human Sweet Taste Receptor Uncovers G-Protein Dependent Biased Ligands” (Frontiers in Pharmacology, 2022).
Where two headings read alike, the source gives them in different places. Marks after values point to notes of the source that are not given here. Residues, ends and D or L forms follow the SMILES beside them.

Assays:
[1] = biological target: T1, human sweet taste receptor (hT1R2/hT1R3) coupled to Gα15 (Homo sapiens, UniProt Q7RTX0+Q8TE23); experiment: FLIPR calcium mobilization assay, R2/R3 U2OS cells transduced with Gα15 baculovirus; type: cell-based; settings: for ΔlogR FLIPR Mean: FLIPR-Gα15, operational model, logR minus sucralose logR; for Activity in FLIPR assay Emax: top asymptote of dose-response normalized to 1 mM sucralose; for ΔΔlogR Mean: ΔlogR FLIPR-Gα15 minus ΔlogR DMR
T1 construct: expressed in transfected cells
T1 sequence (Q8TE23 20-839): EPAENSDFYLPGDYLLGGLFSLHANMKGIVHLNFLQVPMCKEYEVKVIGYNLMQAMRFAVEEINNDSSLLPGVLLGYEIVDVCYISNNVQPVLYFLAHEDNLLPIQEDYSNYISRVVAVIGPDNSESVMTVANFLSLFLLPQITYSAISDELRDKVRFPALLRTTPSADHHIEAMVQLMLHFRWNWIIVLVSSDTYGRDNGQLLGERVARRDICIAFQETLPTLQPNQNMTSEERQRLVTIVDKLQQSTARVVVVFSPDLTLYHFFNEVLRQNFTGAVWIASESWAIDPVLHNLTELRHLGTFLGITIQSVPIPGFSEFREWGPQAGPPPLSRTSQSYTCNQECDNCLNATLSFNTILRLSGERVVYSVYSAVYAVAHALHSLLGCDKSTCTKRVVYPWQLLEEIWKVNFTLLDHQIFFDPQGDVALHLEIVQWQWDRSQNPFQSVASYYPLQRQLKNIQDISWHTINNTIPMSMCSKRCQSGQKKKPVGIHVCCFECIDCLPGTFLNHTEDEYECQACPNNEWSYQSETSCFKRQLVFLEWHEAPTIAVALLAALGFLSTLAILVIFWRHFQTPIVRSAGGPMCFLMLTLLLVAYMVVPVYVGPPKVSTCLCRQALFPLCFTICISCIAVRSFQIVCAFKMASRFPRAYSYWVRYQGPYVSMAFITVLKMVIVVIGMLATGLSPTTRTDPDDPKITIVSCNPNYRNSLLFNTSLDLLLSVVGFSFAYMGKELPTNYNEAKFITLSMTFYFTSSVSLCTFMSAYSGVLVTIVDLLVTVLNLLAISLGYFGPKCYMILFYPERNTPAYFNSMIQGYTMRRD
T1 sequence (Q7RTX0 21-852): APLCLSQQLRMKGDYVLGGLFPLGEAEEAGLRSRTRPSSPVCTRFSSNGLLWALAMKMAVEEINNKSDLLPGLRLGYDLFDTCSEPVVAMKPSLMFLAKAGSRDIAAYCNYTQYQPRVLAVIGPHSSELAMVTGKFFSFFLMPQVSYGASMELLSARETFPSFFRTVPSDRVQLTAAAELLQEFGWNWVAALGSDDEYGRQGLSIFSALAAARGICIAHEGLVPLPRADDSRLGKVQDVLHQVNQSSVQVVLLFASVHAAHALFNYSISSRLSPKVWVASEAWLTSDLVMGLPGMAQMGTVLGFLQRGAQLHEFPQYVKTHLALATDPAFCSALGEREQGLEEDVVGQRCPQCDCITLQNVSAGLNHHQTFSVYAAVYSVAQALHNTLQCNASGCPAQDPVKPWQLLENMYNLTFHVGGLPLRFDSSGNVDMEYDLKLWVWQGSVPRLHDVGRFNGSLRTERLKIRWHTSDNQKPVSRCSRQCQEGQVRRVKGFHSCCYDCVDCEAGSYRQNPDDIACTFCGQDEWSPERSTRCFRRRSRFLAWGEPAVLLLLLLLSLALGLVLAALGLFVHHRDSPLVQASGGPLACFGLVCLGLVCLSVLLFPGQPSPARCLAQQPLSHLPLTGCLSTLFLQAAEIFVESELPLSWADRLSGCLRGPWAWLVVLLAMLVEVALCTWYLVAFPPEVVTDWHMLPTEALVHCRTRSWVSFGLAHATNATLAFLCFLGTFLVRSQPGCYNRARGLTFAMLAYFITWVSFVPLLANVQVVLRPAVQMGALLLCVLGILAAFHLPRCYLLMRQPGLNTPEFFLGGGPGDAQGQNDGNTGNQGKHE
Description: The Gα15 coding sequence was inserted in the HindIII-NotI sites and recombinant virus was generated using the Bac-to-Bac system (Life Technologies). Virus was further amplified by propagation in Sf9 cells grown in suspension using Sf900-II media. Virus titers were determined by plaque assay on Sf9 cells.
Cells were gently mixed with the virus at a multiplicity of infection (MOI) of 5. Using a multidrop, 70 μl per well of the cell and virus mixture was dispensed in a 384-well clear bottom plate (Fisher). After 24 h of incubation in a humidified 37°C tissue culture incubator, trichostatin A was added to a final concentration of 0.3 μM and the cells were incubated for another 18–24 h at 34°C. On the day of the experiment, cells were loaded with 4 μM of the calcium indicator Fluo-4 AM (Invitrogen) in D-PBS for 1 h at room temperature. After washing the cells with D-PBS using a cell washer (BioTek) and a 30-minute rest time, the cell plate and the compound plate were transferred into the FLIPR-Tetra (Molecular Devices). […] Loading and the FLIPR assay were run as described above. When indicated, data for agonist dose-responses were normalized to data obtained with a maximum concentration of sucralose (1 mM) and then fitted and plotted using GraphPad Prism (San Diego, CA) and non-linear regression analysis.
(§1) This value, that we termed pEC50Ratio (sucralose) or pEC50R (sucralose), was calculated with EC50 values obtained in the two assay systems. This transformation also allowed determination of an average and a standard error for the pEC50R (sucralose). The two sets of data (DMR and FLIPR data) were then analyzed with an un-paired t-test (α = 0.05). To calculate relative efficacy bias between the two assays, we captured the top asymptote value from each activity-normalized dose-response curve, as provided by the curve fit, calculated an average and a standard deviation (sd) for each agonist and then analyzed the data pairs with an un-paired t-test (α = 0.05). […] The following steps were followed: 1) Using the PRISM software, we re-analyzed each ligand’s dose-response data obtained in each assay with non-linear regression and the users-defined equation “New Operational Model with TauKa ratios” and retrieved logR values from the fits. 2) Subtracted each ligand’s logR value with that of our standard, the sucralose logR value, obtained from the same data set (each ligand dose-response assay data used in this analysis was accompanied with a sucralose dose-response ran on the same day), producing the ΔlogR value for leach ligand in each assay. 3) Calculated the mean and SEM from ΔlogR replicates (from three to nine independent dose-response analysis, in the two different assays). 4) Calculated ΔΔlogR values by subtracting the averaged ligands’ ΔlogR FLIPR values with the averaged ligands’ ΔlogR DMR values.

[2] = biological target: T2, human sweet taste receptor (hT1R2/hT1R3) (Homo sapiens, UniProt Q7RTX0+Q8TE23); experiment: DMR assay (Epic reader) on R2/R3 U2OS cells, endogenous G proteins; type: cell-based; settings: for EC50: R2/R3 U2OS cells, peak DMR response; for ΔlogR DMR Mean: Table 2, operational model, logR minus sucralose logR; for Activity in DMR assay Emax: top asymptote of dose-response normalized to 1 mM sucralose
T2 construct: expressed in transfected cells
T2 sequence (Q8TE23 20-839): T1 sequence (Q8TE23 20-839)
T2 sequence (Q7RTX0 21-852): T1 sequence (Q7RTX0 21-852)
Description: The plates were incubated in the tissue culture hood for 20 min to allow cells to settle evenly at the bottom of the microplate and further cultured at 37°C in an atmosphere of 5% CO2 for 18–24 h. The next day, the cells were subjected to functional analysis using DMR. […] When indicated, data for agonist dose-responses were normalized to data obtained with a maximum concentration of sucralose (1 mM) and then fitted and plotted using GraphPad Prism (San Diego, CA) and non-linear regression analysis.
as §1

[3] = Activity in FLIPR assay EC50, R2/R3 U2OS cells expressing Gα15
[4] = Activity in FLIPR assay pEC50, R2/R3 U2OS cells expressing Gα15
[5] = read-out: Activity in DMR assay EC50
[6] = read-out: Activity in DMR assay pEC50 (converted)
[7] = R2/R3 U2OS cells expressing Gα15, read-out: Activity in FLIPR assay EC50
[8] = R2/R3 U2OS cells expressing Gα15, read-out: Activity in FLIPR assay pEC50 (converted)

SMILES | EC50 [1, 3] | EC50 [1, 4] | ΔlogR FLIPR Mean [1] | Activity in FLIPR assay Emax ([1]; Gα15) | Bias factor ([1]; inverse log of ΔΔlogR, FLIPR-Gα15 vs DMR) | ΔΔlogR Mean [1] | EC50 [2, 5] | EC50 [2, 6] | ΔlogR DMR Mean [2] | Activity in DMR assay Emax [2] | EC50 [1, 7] | EC50 [1, 8] | response in the FLIPR assay, in words ([1]; R2/R3 U2OS cells transduced with Gα15) | enhancement factor of the sucralose dose-response in the FLIPR assay ([1]; 25 μM SE-2, Gα15, mean ± sd, n = 4) | leftward shift in the sucralose dose-response in the DMR assay ([2]; 25 μM SE-2, mean ± sd, n = 3) | agonist activity on its own in the DMR assay, in words ([2]; 25 μM SE-2 at lower sucralose concentrations)
C[C@@H](NC(=O)[C@@H](N)CC(=O)O)C(=O)NC1C(C)(C)SC1(C)C [Alitame] | 20 µM | 19.4 µM | 0.52 | 100 | 1.5 | 0.18 | 37 µM | 32.5 µM | 0.35 | 106 | – | – | – | – | – | –
COC(=O)[C@H](Cc1ccccc1)NC(=O)[C@@H](N)CC(=O)O [Aspartame] (H-Asp-Phe-OMe) | – | – | −0.74 | 106 | – | −0.03 | 910 µM | 771 µM | −0.72 | 143 | 354 µM | 352 µM | – | – | – | –
O=C(CO)[C@@H](O)[C@H](O)[C@H](O)CO [D-fructose] | – | – | – | – | – | – | – | – | – | – | – | – | readily detected | – | – | –
CCOc1ccc(NC(N)=O)cc1 [Dulcin] | – | – | 0.38 | 87**** | – | 0.18 | 33 µM | 30.7 µM | 0.20 | 57**** | – | 23.1 µM | – | – | – | –
CCCOc1ccc([N+](=O)[O-])cc1N [P-4000] | – | – | 1.67 | 164**** | – | 0.36 | – | 3.78 µM | 1.31 | 102 | 2.2 µM | 2.12 µM | – | – | – | –
Cc1cc(C)c2c(c1)[C@H](NC(=O)c1conc1C)CCC2 [S679] | – | – | 2.15 | 159**** | – | 0.08 | 1.3 µM | 1.22 µM | 2.07 | 133 | 0.7 µM | 0.716 µM | – | – | – | –
COCc1cncc(-c2ccc(C(C)(C)C(=O)NCC(C)C)cc2)n1 [S1313] | – | – | 2.14 | 170**** | – | 0.22 | – | 1.51 µM | 1.91 | 130 | 0.7 µM | 0.665 µM | – | – | – | –
C[C@H](NC(=Nc1ccc(C#N)cc1)NCC(=O)O)c1ccccc1 [SC-45647] | – | – | 1.45 | 98** | – | 0.07 | 4.3 µM | 4.09 µM | 1.38 | 97** | – | 2.28 µM | – | – | – | –
Cc1sc2[nH]c(=O)nc(N)c2c1C [SE-2] | – | – | – | – | – | – | – | – | – | – | – | – | – | 7.3 ± 0.9 fold | 5.1 ± 1.5 fold | did not produce any agonist activity on its own
O=C1NS(=O)(=O)c2ccccc21 [Saccharin] | – | – | −0.47 | 90**** | – | −0.16 | – | – | −0.31 | 145 | – | – | – | – | – | –
C=C1C[C@@]23CC[C@H]4[C@@](C)(CCC[C@@]4(C)C(=O)O[C@@H]4O[C@H](CO)[C@@H](O)[C@H](O)[C@H]4O)[C@@H]2CC[C@]1(O[C@@H]1O[C@H](CO)[C@@H](O)[C@H](O)[C@H]1O[C@@H]1O[C@H](CO)[C@@H](O)[C@H](O)[C@H]1O)C3 [Stevioside] | 51 µM | 50.1 µM | 0.13 | 102 | – | 0.04 | 127 µM | 114 µM | 0.09 | 141 | – | – | – | – | – | –
